Results on two compounds are retold here after patent US20150313906A1, “COMBINATION” (GLAXOSMITHKLINE LLC, priority 2012, published 2015).

The structures appear in SMILES notation. Read-outs that look alike come from different tables or passages of the source.

Series [1] deals with Farage, a DLBCL line harboring WT EZH2. In words: DLBCL cell growth (CellTiter-Glo) with BCL-2 inhibitor after Compound A pre-treatment, Farage. The format is cell-based. To be noted: for IC50: read-out: gIC50.
Procedure: (§1) Plates were incubated for 6 days at 37° C. in 5% CO2. Cells were then lysed with CellTiter-Glo (CTG) (Promega) according to the manufacturer's protocol and chemiluminescent signal was detected with a TECAN Safire2 microplate reader. CTG estimates cell number through detection of cellular ATP levels. In addition, an untreated plate of cells was harvested at the time of compound addition (T0) to quantify the starting number of cells. CTG values were expressed as a percent of the T0 value and plotted against compound concentration.
Series [2] relates to SU-DHL-6, a DLBCL line harboring a Y641N mutation in EZH2. Kind of series: DLBCL cell growth (CellTiter-Glo) with BCL-2 inhibitor after Compound A pre-treatment, SU-DHL-6. The format is cell-based. To be noted: for IC50: Homo sapiens, read-out: gIC50.
Procedure: as §1
The subject of series [3] is WSU-DLCL-2, a DLBCL line harboring a Y641F mutation in EZH2. In words: DLBCL cell growth (CellTiter-Glo) with BCL-2 inhibitor after Compound A pre-treatment, WSU-DLCL2. The format is cell-based. To be noted: Homo sapiens, read-out: gIC50. A general note: In ATP-based viability assays light output follows the ATP content of the culture.
Procedure: as §1
Series [4] has as its system KARPAS-422, a DLBCL line harboring a Y641N mutation in EZH2. In words: DLBCL cell growth (CellTiter-Glo) with BCL-2 inhibitor after Compound A pre-treatment, KARPAS-422. The settings on record: for IC50: read-out: gIC50.
Procedure: as §1
Setting [5] is: 144 h, BCL2 inhibitor alone (no Compound A), 6 days.
Where [6] appears, read: Compound A 1 μM 72 h pre-treatment then 6 day co-treatment.
Where [7] appears, read: 144 h, SU-DHL-6, BCL2 inhibitor alone (no Compound A), 6 days.
Setting [8] is: SU-DHL-6, Compound A 250 nM 72 h pre-treatment then 6 day co-treatment.
The mark [9] stands for this setting: WSUDLCL2, 144 h, WSU-DLCL2, BCL2 inhibitor alone (no Compound A), 6 days.
The mark [10] stands for this setting: WSUDLCL2, WSU-DLCL2, Compound A 250 nM 72 h pre-treatment then 6 day co-treatment.
[11] abbreviates: KARPAS-422, BCL2 inhibitor alone (no Compound A), 6 days.
Setting [12] is: KARPAS-422, Compound A 100 nM 72 h pre-treatment then 6 day co-treatment.
Setting [13] is: KARPAS-422, Compound A 500 nM 72 h pre-treatment then 6 day co-treatment.

For the compound `CN(C)CC[C@H](CSc1ccccc1)Nc1ccc(S(=O)(=O)NC(=O)c2ccc(N3CCN(Cc4ccccc4-c4ccc(Cl)cc4)CC3)cc2)cc1[N+](=O)[O-]` [ABT-737], the IC50 in series [1] (setting [5]) is 4710 nM; in series [1] (setting [6]) it was 246 nM; in series [2] (setting [7]) it was 1330 nM; in series [2] (setting [8]), 110 nM; in series [3] (setting [9]), 1410 nM; in series [3] (setting [10]), 971 nM. Also, the IC50 in series [4] (setting [11]) was determined as 334 nM; in series [4] (setting [12]) it was 78 nM; in series [4] (setting [13]), 1.1 nM. The “Fold shift in potency over ABT-737 alone” value was 19 in series [1] (Compound A 1 uM); 12 in series [2] (SU-DHL-6, Compound A 250 nM); 4.3 in series [4] (KARPAS-422, Compound A 100 nM); 304 in series [4] (KARPAS-422, Compound A 500 nM).
Take `CC1(C)CCC(c2ccc(Cl)cc2)=C(CN2CCN(c3ccc(C(=O)NS(=O)(=O)c4ccc(N[C@H](CCN5CCOCC5)CSc5ccccc5)c(S(=O)(=O)C(F)(F)F)c4)cc3)CC2)C1` [ABT-263]: the IC50 stood at 455 nM in series [1] (setting [5]); 11 nM in series [1] (setting [6]); 518 nM in series [2] (setting [7]); 17 nM in series [2] (setting [8]); 464 nM in series [3] (setting [9]); 1150 nM in series [3] (setting [10]). Moreover, the IC50 in series [4] (setting [11]) is 169 nM; in series [4] (setting [12]), 60 nM; in series [4] (setting [13]), 0.4 nM. Also, the “Fold shift in potency over ABT-263 alone” value in series [1] (Compound A 1 μM) came to 43; in series [2] (SU-DHL-6, Compound A 250 nM), 31; in series [4] (KARPAS-422, Compound A 100 nM), 2.8; in series [4] (KARPAS-422, Compound A 500 nM) it was 423.
